Data published in the NIST ThermoML archive (doi:10.1016/j.jct.2018.03.009).
Numbers after ± are expanded uncertainties.

Conditions: 101.33 kPa, Liquid, Pycnometric method

mass density (273.15 K)	mass density (283.15 K)	Compound
975.3 ± 4.3 kg/m3	965.3 ± 4.3 kg/m3	COC(C)CCOC(C)=O (configuration not stated) [3-methoxybutyl acetate]
926.4 ± 4.1 kg/m3	916.3 ± 4 kg/m3	CCOCCOCCOCC [diethylene glycol diethyl ether]

Second part, the compound before the results:

Compound	mass density (273.15 K)	mass density (283.15 K)
COCC(C)OC(C)=O (configuration not stated) [1-methoxy-2-propyl acetate]	989.2 ± 4.4 kg/m3	978.2 ± 4.3 kg/m3
CCOCCOCCOC(C)=O [2-(2-ethoxyethoxy)ethyl acetate]	1030 ± 5.9 kg/m3	1020 ± 5.8 kg/m3
CCCCOCCOC(C)=O [2-butoxyethyl acetate]	960.4 ± 5.5 kg/m3	950.4 ± 5.4 kg/m3
COCCOC(C)=O [2-methoxyethyl ethanoate]	1027.8 ± 5.8 kg/m3	1016.8 ± 5.8 kg/m3
